Laboratory results: the supplement of paper PMC10883282

What was measured:
Assay in all cases: relative viability vs DMSO control (72 h) (fraction); higher = more viable cells
SW1353 = test system: SW1353
In short: (§1)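 Sarcoma cell lines in 384-well plates, seeded to reach 80–90% confluence, were given compound after 24 h and kept 72 h at 37 °C, 5% CO2, with 0.1% DMSO vehicle and a 5 µM positive control. Relative viability came from ATPLite as percent growth, averaged over up to triplicate wells. On the rescaled values, 1 equals full and 0 equals none.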

RD-ES = test system: RD-ES
In short: as §1

SW684 = test system: SW684
In short: as §1

KHOS-240S = test system: KHOS-240S
In short: as §1

A204 = test system: A204
In short: as §1

SW872 = test system: SW872
In short: as §1

KHOS-NP = test system: KHOS-NP
In short: as §1

SW982 = test system: SW982
In short: as §1

G401 = test system: G401
In short: as §1

SYO-1 = test system: SYO-1
In short: as §1

HT1080 = test system: HT1080
In short: as §1

SK-ES-1 = test system: SK-ES-1
In short: as §1

Clc1ccc(Nc2nnc(Cc3ccncc3)c3ccccc23)cc1 [Vatalanib]
Settings | relative viability
A204, 0.00017 µM | 1.05
A204, 0.00051 µM | 1.09
A204, 0.00152 µM | 1.04
A204, 0.00457 µM | 1.03
A204, 0.01372 µM | 1.04
A204, 0.04115 µM | 1.02
A204, 0.1235 µM | 0.972
A204, 0.3704 µM | 0.904
A204, 1.111 µM | 0.7796
A204, 3.333 µM | 0.483
A204, 10 µM | 0.365
G401, 0.00017 µM | 0.965
G401, 0.00051 µM | 0.975
G401, 0.00152 µM | 0.954
G401, 0.00457 µM | 0.973
G401, 0.01372 µM | 0.979
G401, 0.04115 µM | 1
G401, 0.1235 µM | 0.947
G401, 0.3704 µM | 0.985
G401, 1.111 µM | 0.933
G401, 3.333 µM | 0.876
G401, 10 µM | 0.7239
HT1080, 0.00017 µM | 1.01
HT1080, 0.00051 µM | 0.995
HT1080, 0.00152 µM | 0.989
HT1080, 0.00457 µM | 1.01
HT1080, 0.01372 µM | 0.993
HT1080, 0.04115 µM | 0.9838
HT1080, 0.1235 µM | 0.986
HT1080, 0.3704 µM | 1
HT1080, 1.111 µM | 1.021
HT1080, 3.333 µM | 1.02
HT1080, 10 µM | 1.07
KHOS-240S, 0.00017 µM | 1.03
KHOS-240S, 0.00051 µM | 1.06
KHOS-240S, 0.00152 µM | 1.05
KHOS-240S, 0.00457 µM | 1.04
KHOS-240S, 0.01372 µM | 1.04
KHOS-240S, 0.04115 µM | 1.01
KHOS-240S, 0.1235 µM | 1.04
KHOS-240S, 0.3704 µM | 1.03
KHOS-240S, 1.111 µM | 0.986
KHOS-240S, 3.333 µM | 1.01
KHOS-240S, 10 µM | 1
KHOS-NP, 0.00017 µM | 1.041
KHOS-NP, 0.00051 µM | 1.054
KHOS-NP, 0.00152 µM | 1.04
KHOS-NP, 0.00457 µM | 1.06
KHOS-NP, 0.01372 µM | 1.03
KHOS-NP, 0.04115 µM | 1.05
KHOS-NP, 0.1235 µM | 1.058
KHOS-NP, 0.3704 µM | 1.062
KHOS-NP, 1.111 µM | 1.07
KHOS-NP, 3.333 µM | 1.07
KHOS-NP, 10 µM | 1.08
RD-ES, 0.00017 µM | 0.987
RD-ES, 0.00051 µM | 0.954
RD-ES, 0.00152 µM | 0.975
RD-ES, 0.00457 µM | 0.983
RD-ES, 0.01372 µM | 0.967
RD-ES, 0.04115 µM | 0.959
RD-ES, 0.1235 µM | 0.965
RD-ES, 0.3704 µM | 0.956
RD-ES, 1.111 µM | 0.989
RD-ES, 3.333 µM | 0.98
RD-ES, 10 µM | 0.947
SK-ES-1, 0.00017 µM | 0.978
SK-ES-1, 0.00051 µM | 0.987
SK-ES-1, 0.00152 µM | 0.968
SK-ES-1, 0.00457 µM | 1.04
SK-ES-1, 0.01372 µM | 1.03
SK-ES-1, 0.04115 µM | 1.01
SK-ES-1, 0.1235 µM | 0.995
SK-ES-1, 0.3704 µM | 1.04
SK-ES-1, 1.111 µM | 1.05
SK-ES-1, 3.333 µM | 1.02
SK-ES-1, 10 µM | 0.91
SW684, 0.00017 µM | 1.13
SW684, 0.00051 µM | 1.0999
SW684, 0.00152 µM | 1.09
SW684, 0.00457 µM | 1.11
SW684, 0.01372 µM | 1.11
SW684, 0.04115 µM | 1.1
SW684, 0.1235 µM | 1.08
SW684, 0.3704 µM | 1.12
SW684, 1.111 µM | 1.09
SW684, 3.333 µM | 1.03
SW684, 10 µM | 1.03
SW872, 0.00017 µM | 1.01
SW872, 0.00051 µM | 1.01
SW872, 0.00152 µM | 1.02
SW872, 0.00457 µM | 1.026
SW872, 0.01372 µM | 0.9937
SW872, 0.04115 µM | 1.02
SW872, 0.1235 µM | 1.022
SW872, 0.3704 µM | 1.021
SW872, 1.111 µM | 1.02
SW872, 3.333 µM | 1.03
SW872, 10 µM | 0.971
SW982, 0.00017 µM | 1.03
SW982, 0.00051 µM | 1.02
SW982, 0.00152 µM | 1.04
SW982, 0.00457 µM | 1.05
SW982, 0.01372 µM | 1.06
SW982, 0.04115 µM | 1.0899
SW982, 0.1235 µM | 1.065
SW982, 0.3704 µM | 1.04
SW982, 1.111 µM | 1.03
SW982, 3.333 µM | 1.053
SW982, 10 µM | 1.03
SW1353, 0.00017 µM | 0.9762
SW1353, 0.00051 µM | 0.9786
SW1353, 0.00152 µM | 0.939
SW1353, 0.00457 µM | 0.962
SW1353, 0.01372 µM | 0.935
SW1353, 0.04115 µM | 0.9589
SW1353, 0.1235 µM | 0.966
SW1353, 0.3704 µM | 0.978
SW1353, 1.111 µM | 0.93
SW1353, 3.333 µM | 0.934
SW1353, 10 µM | 0.881
SYO-1, 0.00017 µM | 0.921
SYO-1, 0.00051 µM | 0.915
SYO-1, 0.00152 µM | 0.937
SYO-1, 0.00457 µM | 0.926
SYO-1, 0.01372 µM | 0.929
SYO-1, 0.04115 µM | 0.929
SYO-1, 0.1235 µM | 0.906
SYO-1, 0.3704 µM | 0.882
SYO-1, 1.111 µM | 0.807
SYO-1, 3.333 µM | 0.735
SYO-1, 10 µM | 0.651
